Structures can show the parent of a compound that is named as a salt.
Biological target: T1, IRE1α (Homo sapiens, UniProt O75460, D688N)
T1 construct: containing the kinase and RNase domains (KR, AA G547-1L977, D688N); made in house; host or cells: Sf9 insect cells
Test: IRE1α TR-FRET competition binding assay (IRE1α HTRF)
Settings: His-tagged IRE1α kinase dead construct (KR, D688N) 0.25 nM; Alexa fluor 647-labeled ATP competitive probe 2 nM; one hour at room temperature; read-out: IRE1α (alpha) HTRF (IC50)
Experimental: Example 59. IRE1α TR-FRET Competition Binding Assay
To determine the affinity of compound binding to the kinase domain of IRE1α, a time-resolved fluorescence resonance energy transfer (TR-FRET) competition assay was used.
A His-tagged IRE1α kinase dead construct containing the kinase and RNase domains (KR, AA G547-1L977, D688N) was expressed in Sf9 insect cells. The purified protein (final concentration 0.25 nM) was pre-incubated with anti-His Europium labeled antibody (Life Technologies PV5596, final concentration 2 nM) for one hour at 4° C. in TR-FRET Assay Buffer (50 mM HEPES, pH 7.5, 10 mM MgCl2, 0.083 mM Brij 35, 1 mM DTT, and 0.1% bovine gamma globulin) prior to addition to test compounds. An Alexa fluor 647-labeled probe based on an ATP competitive inhibitor was added to a final concentration of 2 nM. Reactions were carried out for one hour at room temperature in a final volume of 20 μL in 384 well white ProxiPlates (Perkin Elmer 6008289). Binding of the probe to the IRE1α protein was detected in an Envision instrument (PerkinElmer) equipped with a TRF laser option and a LANCE/Delfia Dual/Bias D400/D630 mirror (Ex 347 nm, 1st Em 665 nm, 2nd Em 615 nm).

T1 sequence (O75460 547-977 D688N): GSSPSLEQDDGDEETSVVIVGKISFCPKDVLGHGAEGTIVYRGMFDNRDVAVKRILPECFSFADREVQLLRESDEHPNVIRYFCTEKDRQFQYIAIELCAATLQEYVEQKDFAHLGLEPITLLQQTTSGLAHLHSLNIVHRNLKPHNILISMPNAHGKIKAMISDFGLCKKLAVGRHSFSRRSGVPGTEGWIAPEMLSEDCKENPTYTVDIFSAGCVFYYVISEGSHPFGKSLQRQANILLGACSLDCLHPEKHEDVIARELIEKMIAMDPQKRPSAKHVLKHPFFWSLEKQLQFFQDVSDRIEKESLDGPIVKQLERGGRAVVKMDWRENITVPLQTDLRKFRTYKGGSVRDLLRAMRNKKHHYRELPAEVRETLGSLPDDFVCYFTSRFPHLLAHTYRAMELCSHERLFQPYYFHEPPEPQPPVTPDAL

Compound	IC50 [nM]
Cc1nc(NS(=O)(=O)CCC(F)(F)F)ccc1-c1cc(C)c2nc(N[C@H]3CC[C@H](N(C)C)CC3)ncc2n1 [Compound 126, N-(5-(2-(((1,4-trans)-4-(Dimethylamino)cyclohexyl)amino)-8-methylpyrido[3,2-d]pyrimidin-6-yl)-6-methylpyridin-2-yl)-3,3,3-trifluoropropane-1-sulfonamide]	18
Cc1cc(-c2ccc(NC(=O)CC(C)C)c(F)c2)nc2cnc(N[C@H]3CC[C@H](N(C)C)CC3)nc12 [Compound 127, N-(4-(2-(((1,4-trans)-4-(Dimethylamino)cyclohexyl)amino)-8-methylpyrido[3,2-d]pyrimidin-6-yl)-2-fluorophenyl)-3-methylbutanamide]	140
Cc1cc(-c2ccc(NS(=O)(=O)c3ccccc3Cl)c(F)c2)nc2cnc(N[C@H]3CC[C@H](N(C)C)CC3)nc12 [Compound 128, 2-Chloro-N-(4-(2-(((1,4-trans)-4-(dimethylamino)cyclohexyl)amino)-8-methylpyrido[3,2-d]pyrimidin-6-yl)-2-fluorophenyl)benzenesulfonamide]	0.16
Cc1cc(-c2ccc(NS(=O)(=O)Cc3ccc(F)cc3)c(F)c2)nc2cnc(N[C@H]3CC[C@H](N(C)C)CC3)nc12 [Compound 129, N-(4-(2-(((1,4-trans)-4-(Dimethylamino)cyclohexyl)amino)-8-methylpyrido[3,2-d]pyrimidin-6-yl)-2-fluorophenyl)-1-(4-fluorophenyl)methanesulfonamide]	0.08
CN(C)[C@H]1CC[C@H](Nc2ncc3nc(-c4ccc(NS(=O)(=O)Cc5ccc(F)cc5)c(F)c4)cc(CF)c3n2)CC1 [Compound 130, N-[4-[2-[[(1,4-trans)-4-(Dimethylamino)cyclohexyl]amino]-8-(fluoromethyl)pyrido[3,2-d]pyrimidin-6-yl]-2-fluoro-phenyl]-1-(4-fluorophenyl)methanesulfonamide]	0.2
CN(C)[C@H]1CC[C@H](Nc2ncc3nc(-c4ccc(NS(=O)(=O)Cc5ccc(F)cc5)c(F)c4)cc(C(F)F)c3n2)CC1 [Compound 131, N-1,4-trans-[4-[8-(Difluoromethyl)-2-[[4-(dimethylamino)cyclohexyl]amino]pyrido[3,2-d]pyrimidin-6-yl]-2-fluoro-phenyl]-1-(4-fluorophenyl)methanesulfonamide]	0.15
Cc1cc(-c2ccc(NS(=O)(=O)Cc3ccc(F)cc3)c(F)c2F)nc2cnc(N[C@H]3CC[C@H](N(C)C)CC3)nc12 [Compound 132, N-(4-(2-(((1,4-trans)-4-(Dimethylamino)cyclohexyl)amino)-8-methylpyrido[3,2-d]pyrimidin-6-yl)-2,3-difluorophenyl)-1-(4-fluorophenyl)methanesulfonamide]	0.23
Cc1nc(NS(=O)(=O)Cc2ccc(F)cc2)ccc1-c1cc(C(F)F)c2nc(N[C@H]3CC[C@H](N(C)C)CC3)ncc2n1 [Compound 133, N-(5-(8-(Difluoromethyl)-2-(((1,4-trans)-4-(dimethylamino)cyclohexyl)amino)pyrido[3,2-d]pyrimidin-6-yl)-6-methylpyridin-2-yl)-1-(4-fluorophenyl)methanesulfonamide]	5.2
CCc1cc(-c2ccc(NS(=O)(=O)c3ccccc3Cl)nc2C)nc2cnc(N[C@H]3CC[C@H](N(C)C)CC3)nc12 [Compound 134, 2-Chloro-N-(5-(2-(((1,4-trans)-4-(dimethylamino)cyclohexyl)amino)-8-ethylpyrido[3,2-d]pyrimidin-6-yl)-6-methylpyridin-2-yl)benzenesulfonamide]	0.33
Cc1cc(-c2ccc(NS(=O)(=O)c3ccccc3Cl)nc2)nc2cnc(N[C@H]3CC[C@H](N(C)C)CC3)nc12 [Compound 135, 2-Chloro-N-(5-(2-(((1,4-trans)-4-(dimethylamino)cyclohexyl)amino)-8-methylpyrido[3,2-d]pyrimidin-6-yl)pyridin-2-yl)benzenesulfonamide]	0.32

Continued, values first:

IC50 [nM]	Compound
14	Cc1nc(NS(=O)(=O)c2ccccc2Cl)ccc1-c1cc(C)c2nc(N[C@@H]3CNC[C@@H](F)C3)ncc2n1 [Compound 136, 2-Chloro-N-(5-(2-(((3S,5S)-5-fluoropiperidin-3-yl)amino)-8-methylpyrido[3,2-d]pyrimidin-6-yl)-6-methylpyridin-2-yl)benzenesulfonamide]
0.23	Cc1cc(-c2cc(F)c(NS(=O)(=O)Cc3ccc(F)cc3)cc2F)nc2cnc(N[C@H]3CC[C@H](N(C)C)CC3)nc12 [Compound 137, N-(4-(2-(((1,4-trans)-4-(Dimethylamino)cyclohexyl)amino)-8-methylpyrido[3,2-d]pyrimidin-6-yl)-2,5-difluorophenyl)-1-(4-fluorophenyl)methanesulfonamide]
0.21	COCc1cc(-c2ccc(NS(=O)(=O)Cc3ccc(F)cc3)c(F)c2)nc2cnc(N[C@H]3CC[C@H](N(C)C)CC3)nc12 [Compound 138, N-(4-(2-(((1,4-trans)-4-(Dimethylamino)cyclohexyl)amino)-8-(methoxymethyl)pyrido[3,2-d]pyrimidin-6-yl)-2-fluorophenyl)-1-(4-fluorophenyl)methanesulfonamide]
0.23	O=S(=O)(Cc1ccc(F)cc1)Nc1ccc(-c2cc(C(F)F)c3nc(N[C@@H]4CNC[C@@H](F)C4)ncc3n2)cc1F [Compound 139, N-[4-[8-(Difluoromethyl)-2-[[(3S,5S)-5-fluoro-3-piperidyl]amino]pyrido[3,2-d]pyrimidin-6-yl]-2-fluoro-phenyl]-1-(4-fluorophenyl)methanesulfonamide hydrochloride]
4.5	Cc1cc(-c2c(F)cc(NS(=O)(=O)Cc3ccc(F)cc3)cc2F)nc2cnc(N[C@H]3CC[C@H](N(C)C)CC3)nc12 [Compound 140, N-(4-(2-(((1,4-trans)-4-(Dimethylamino)cyclohexyl)amino)-8-methylpyrido[3,2-d]pyrimidin-6-yl)-3,5-difluorophenyl)-1-(4-fluorophenyl)methanesulfonamide]
0.43	CCc1cc(-c2ccc(NS(=O)(=O)c3ccccc3Cl)nc2OC)nc2cnc(N[C@H]3CC[C@H](N(C)C)CC3)nc12 [Compound 141, 2-Chloro-N-(5-(2-(((1,4-trans)-4-(dimethylamino)cyclohexyl)amino)-8-ethylpyrido[3,2-d]pyrimidin-6-yl)-6-methoxypyridin-2-yl)benzenesulfonamide]
0.14	CCc1cc(-c2ccc(NS(=O)(=O)Cc3ccc(F)cc3)nc2OC)nc2cnc(N[C@H]3CC[C@H](N(C)C)CC3)nc12 [Compound 142, N-(5-(2-(((1,4-trans)-4-(Dimethylamino)cyclohexyl)amino)-8-ethylpyrido[3,2-d]pyrimidin-6-yl)-6-methoxypyridin-2-yl)-1-(4-fluorophenyl)methanesulfonamide]
0.2	CN(C)[C@H]1CC[C@H](Nc2ncc3nc(-c4ccc(NS(=O)(=O)c5ccccc5Cl)c(F)c4)cc(C(F)F)c3n2)CC1 [Compound 143, 2-Chloro-N-[(1,4-trans)-4-[8-(difluoromethyl)-2-[[4-(dimethylamino)cyclohexyl]amino]pyrido[3,2-d]pyrimidin-6-yl]-2-fluoro-phenyl]benzenesulfonamide]
0.16	CN(C)[C@H]1CC[C@H](Nc2ncc3nc(-c4ccc(NS(=O)(=O)CCC(F)(F)F)c(F)c4)cc(C(F)F)c3n2)CC1 [Compound 144, N-[(1,4-trans)-4-[8-(Difluoromethyl)-2-[[4-(dimethylamino)cyclohexyl]amino]pyrido[3,2-d]pyrimidin-6-yl]-2-fluoro-phenyl]-3,3,3-trifluoro-propane-1-sulfonamide]
0.25	Cc1nc(NS(=O)(=O)c2ccccc2Cl)ccc1-c1cc(C(F)F)c2nc(N[C@H]3CC[C@H](N(C)C)CC3)ncc2n1 [Compound 145, 2-Chloro-N-[5-[8-(difluoromethyl)-2-[[(1,4-trans)-4-(dimethylamino)cyclohexyl]amino]pyrido[3,2-d]pyrimidin-6-yl]-6-methyl-2-pyridyl]benzenesulfonamide]
0.21	CCc1cc(-c2ccc(NS(=O)(=O)c3ccccc3F)nc2C)nc2cnc(N[C@H]3CC[C@H](N(C)C)CC3)nc12 [Compound 146, N-(5-(2-(((1,4-trans)-4-(dimethylamino)cyclohexyl)amino)-8-ethylpyrido[3,2-d]pyrimidin-6-yl)-6-methylpyridin-2-yl)-2-fluorobenzenesulfonamide]
0.28	CCc1cc(-c2ccc(NS(=O)(=O)c3ccccc3C(F)F)nc2C)nc2cnc(N[C@H]3CC[C@H](N(C)C)CC3)nc12 [Compound 147, 2-(Difluoromethyl)-N-(5-(2-(((1,4-trans)-4-(dimethylamino)cyclohexyl)amino)-8-ethylpyrido[3,2-d]pyrimidin-6-yl)-6-methylpyridin-2-yl)benzenesulfonamide]
0.51	CCc1cc(-c2ccc(NS(=O)(=O)c3ccccc3OC(F)F)nc2C)nc2cnc(N[C@H]3CC[C@H](N(C)C)CC3)nc12 [Compound 148, 2-(Difluoromethoxy)-N-(5-(2-(((1,4-trans)-4-(dimethylamino)cyclohexyl)amino)-8-ethylpyrido[3,2-d]pyrimidin-6-yl)-6-methylpyridin-2-yl)benzenesulfonamide]

From patent US20220204498A1, “PYRIDO-PYRIMIDINYL COMPOUNDS AND METHODS OF USE” (Genentech, Inc., priority 2019, published 2022)
